Source: ChEMBL document CHEMBL1201862, “PubChem BioAssay data set” (2004)
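Five compound concentrations were applied to cells in 96-well plates for 48 hours; endpoints were derived by simple linear interpolation of the resulting dose-response curve. GI50: concentration for 50% inhibition of growth.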 Active and inactive are the calls of the source. Rule as the data show it: active = GI50 up to about 1.1 µM and inactive = higher.

Tests used:
Test in all cases: NCI-60 cell line screen, 48 h
[1] = system: 786-0
[2] = system: A498
[3] = system: A549
[4] = system: ACHN
[5] = system: CAKI-1
[6] = system: CCRF-CEM
[7] = system: COLO 205
[8] = system: DLD-1
[9] = system: DMS-114
[10] = system: DMS-273
[11] = system: EKVX
[12] = system: HCC 2998
[13] = system: HCT-116
[14] = system: HCT-15
[15] = system: HL-60
[16] = system: HOP-62
[17] = system: HOP-92
[18] = system: HT-29
[19] = system: IGROV-1
[20] = system: K562
[21] = system: KM-20L2
[22] = system: KM12
[23] = system: LOX IMVI
[24] = system: LXFL 529
[25] = system: M14
[26] = system: M19-MEL
[27] = system: MOLT-4
[28] = system: NCI-H226
[29] = system: NCI-H23
[30] = system: NCI-H460
[31] = system: NCI-H522
[32] = system: OVCAR-4
[33] = system: OVCAR-5
[34] = system: OVCAR-8
[35] = system: RPMI-8226
[36] = system: RXF 393
[37] = system: SF-268
[38] = system: SF-295
[39] = system: SF-539
[40] = system: SK-MEL-28
[41] = system: SK-MEL-5
[42] = system: SK-OV-3
[43] = system: SN12C
[44] = system: SNB-19
[45] = system: SNB-75
[46] = system: SR
[47] = system: SW-620
[48] = system: TK-10
[49] = system: U-251
[50] = system: UACC-257
[51] = system: UACC-62
[52] = system: UO-31
[53] = system: XF498
[54] = system: Malme-3M
[55] = system: OVCAR-3
[56] = system: SK-MEL-2
[57] = system: SNB-78

Cn1c(=O)n(C2(C)CSC2)c2ccccc21 was tested, and the GI50 [1] was > 100 µM (inactive), the GI50 [2] was > 100 µM (inactive) and the GI50 [3] was > 100 µM (inactive). The GI50 [4] was > 100 µM (inactive), the GI50 [5] was > 100 µM (inactive) and the GI50 [6] was > 100 µM (inactive). The GI50 [7] was > 100 µM (inactive), the GI50 [8] was > 100 µM (inactive) and the GI50 [9] was > 100 µM (inactive). For the same compound, the GI50 [10] was > 100 µM (inactive), the GI50 [11] was > 100 µM (inactive) and the GI50 [12] was > 100 µM (inactive). The GI50 [13] was > 100 µM (inactive), the GI50 [14] was greater than 100 µM and the GI50 [15] was > 100 µM (inactive). For the same compound, the GI50 [16] was > 100 µM (inactive), the GI50 [17] was > 100 µM (inactive) and the GI50 [18] was > 100 µM (inactive). For the same compound, the GI50 [19] was > 100 µM (inactive), the GI50 [20] was > 100 µM (inactive) and the GI50 [21] was > 100 µM (inactive). For the same compound, the GI50 [22] was > 100 µM (inactive), the GI50 [23] was > 100 µM (inactive) and the GI50 [24] was > 100 µM (inactive). The GI50 [25] was > 100 µM (inactive), the GI50 [26] was > 100 µM (inactive) and the GI50 [27] was > 100 µM (inactive). The GI50 [28] was > 100 µM (inactive), the GI50 [29] was > 100 µM (inactive) and the GI50 [30] was > 100 µM (inactive). The GI50 [31] was > 100 µM (inactive), the GI50 [32] was > 100 µM (inactive) and the GI50 [33] was > 100 µM (inactive). The GI50 [34] was > 100 µM (inactive), the GI50 [35] was > 100 µM (inactive) and the GI50 [36] was > 100 µM (inactive). For the same compound, the GI50 [37] was > 100 µM (inactive), the GI50 [38] was > 100 µM (inactive) and the GI50 [39] was > 100 µM (inactive). The GI50 [40] was > 100 µM (inactive), the GI50 [41] was > 100 µM (inactive) and the GI50 [42] was > 100 µM (inactive). For the same compound, the GI50 [43] was > 100 µM (inactive), the GI50 [44] was > 100 µM (inactive) and the GI50 [45] was > 100 µM (inactive). The GI50 [46] was > 100 µM (inactive), the GI50 [47] was > 100 µM (inactive) and the GI50 [48] was > 100 µM (inactive). The GI50 [49] was > 100 µM (inactive), the GI50 [50] was > 100 µM (inactive) and the GI50 [51] was > 100 µM (inactive). The GI50 [52] was > 100 µM (inactive) and the GI50 [53] was > 100 µM (inactive).
With CC(=O)O[C@H]1C(=O)[C@@]2(C)C(C(OC(=O)c3ccccc3)[C@]3(O)CC(OC(=O)C(O)C(NC(=O)c4ccc(C)cc4)c4ccccc4)C(C)=C1C3(C)C)[C@]1(OC(C)=O)CO[C@@H]1C[C@@H]2O (some centres undefined) the GI50 [1] was 0.0074 µM (active), the GI50 [2] was 0.00596 µM (active) and the GI50 [3] was 0.00504 µM (active). The GI50 [4] was 0.112 µM (active), the GI50 [5] was 0.224 µM (active) and the GI50 [6] was 0.00365 µM (active). The GI50 [7] was < 0.0025 µM (active), the GI50 [8] was 0.0661 µM (active) and the GI50 [9] was < 0.0025 µM (active). The GI50 [10] was < 0.0025 µM (active), the GI50 [11] was 0.111 µM (active) and the GI50 [13] was < 0.0025 µM (active). The GI50 [14] was 0.173 µM, the GI50 [15] was < 0.0025 µM (active) and the GI50 [16] was 0.00986 µM (active). The GI50 [18] was < 0.0025 µM (active), the GI50 [19] was < 0.0025 µM (active) and the GI50 [20] was < 0.0025 µM (active). For the same compound, the GI50 [21] was 0.00305 µM (active), the GI50 [22] was < 0.0025 µM (active) and the GI50 [23] was 0.00352 µM (active). For the same compound, the GI50 [24] was 0.00424 µM (active), the GI50 [25] was < 0.0025 µM (active) and the GI50 [26] was < 0.0025 µM (active). For the same compound, the GI50 [27] was < 0.0025 µM (active), the GI50 [54] was 0.0043 µM (active) and the GI50 [29] was 0.00785 µM (active). The GI50 [30] was < 0.0025 µM (active), the GI50 [31] was < 0.0025 µM (active) and the GI50 [55] was < 0.0025 µM (active). The GI50 [32] was 3.2 µM (inactive), the GI50 [33] was 0.00743 µM (active) and the GI50 [34] was 0.00426 µM (active). For the same compound, the GI50 [35] was < 0.0025 µM (active), the GI50 [36] was 0.00628 µM (active) and the GI50 [37] was 0.00573 µM (active). The GI50 [38] was 0.0228 µM (active), the GI50 [39] was < 0.0025 µM (active) and the GI50 [56] was < 0.0025 µM (active). For the same compound, the GI50 [41] was 0.00402 µM (active), the GI50 [42] was < 0.0025 µM (active) and the GI50 [43] was 0.0112 µM (active). The GI50 [44] was 0.00771 µM (active), the GI50 [45] was 0.0045 µM (active) and the GI50 [57] was 4.02 µM (inactive). The GI50 [48] was 0.0588 µM (active), the GI50 [49] was 0.00315 µM (active) and the GI50 [50] was 0.00708 µM (active). The GI50 [51] was 0.0199 µM (active), the GI50 [52] was 0.826 µM (active) and the GI50 [53] was < 0.0025 µM (active).
